Assay results from article PMC4138103 (PLoS ONE, 2014).

Test: Margin of exposure calculations
Set-up: species or system human
Details: for MoE, Liver p53 / MoE, Spontanous locomotor activity: females; for MoE, Liver retinol / MoE, Serum chlolesterol / MoE, Serum thyroxine / MoE, Serum triglycerids: males
Source text: They include values from the WHO mother's milk survey in 2001–2002 [1], [2], adipose tissue from the Finnish general population in 1997–1999 [83] and, plasma from the Baltic Sea fisherman cohort in 1997–1999 [41] and placenta from a Danish–Finnish joint prospective cohort in 1997–2001 [40]. WHO has established uncertainty factors (UF) for estimating tolerable intake levels of environmental chemicals. As rat and human tissue concentration data are used no interspecies toxicokinetic UF is needed. A toxicodynamic factor of 2.5 is applied to cover the interspecies variability and a factor of 10 to cover the inter-individual variability in humans. Thus, the UF of 25 is considered adequate for human health endpoints of NDL-PCBs.

[1] = Worst case: the most exposed fisherman
[2] = human cohort Baltic Sea fishermen
[3] = human cohort General population (Finland)
[4] = human cohort Placenta (Denmark)
[5] = human cohort Placenta (Finland)

Structure (SMILES): Clc1cc(Cl)c(-c2cc(Cl)c(Cl)c(Cl)c2Cl)cc1Cl [PCB 180, 2,2′,3′,4,4′,5,5′-heptachlorobiphenyl]
- MoE, Liver p53 [1]: 25
- MoE, Spontanous locomotor activity [1]: 0.438
- MoE, Liver p53 [2]: 65.2
- MoE, Spontanous locomotor activity [2]: 1.14
- MoE, Liver p53 [3]: 316
- MoE, Spontanous locomotor activity [3]: 5.53
- MoE, Liver p53 (human cohort Mother's milk): 655
- MoE, Spontanous locomotor activity (human cohort Mother's milk): 11.5
- MoE, Liver p53 [4]: 3109
- MoE, Spontanous locomotor activity [4]: 54.4
- MoE, Liver p53 [5]: 5396
- MoE, Spontanous locomotor activity [5]: 94.4
- MoE, Liver retinol [1]: 15.7
- MoE, Serum chlolesterol [1]: 76.2
- MoE, Serum thyroxine [1]: 97.5
- MoE, Serum triglycerids [1]: 6.05
- MoE, Liver retinol [2]: 40.9
- MoE, Serum chlolesterol [2]: 199
- MoE, Serum thyroxine [2]: 254
- MoE, Serum triglycerids [2]: 15.8
- MoE, Liver retinol [3]: 198
- MoE, Serum chlolesterol [3]: 963
- MoE, Serum thyroxine [3]: 1233
- MoE, Serum triglycerids [3]: 76.5
- MoE, Liver retinol (human cohort Mother's milk): 410
- MoE, Serum chlolesterol (human cohort Mother's milk): 1996
- MoE, Serum thyroxine (human cohort Mother's milk): 2555
- MoE, Serum triglycerids (human cohort Mother's milk): 159
- MoE, Liver retinol [4]: 1948
- MoE, Serum chlolesterol [4]: 9472
- MoE, Serum thyroxine [4]: 12124
- MoE, Serum triglycerids [4]: 752
- MoE, Liver retinol [5]: 3381
- MoE, Serum chlolesterol [5]: 16439
- MoE, Serum thyroxine [5]: 21043
- MoE, Serum triglycerids [5]: 1306
